According to publication PMC6927504, “Screening of House Dust from Chinese Homes for Chemicals with Liver X Receptors Binding Activities and Characterization of Atherosclerotic Activity Using an in Vitro Macrophage Cell Line and ApoE^−/− Mice” (Environmental Health Perspectives, 2019):

Legend:
[1] = system: human primary preadipocytes; design: method as in Tung et al. 2017; settings: ref Tung et al. 2017; cited from earlier work
[2] = system: ABCA1; experiment: qRT-PCR of ABCA1 in peritoneal macrophages isolated from exposed C57BL/6 mice; format: in vivo, mouse; settings: 200 mg/kg BW oral gavage for 7 d, control set to 1, p<0.01
Description: Total RNA was isolated from RAW264.7 cells and mouse peritoneal macrophages using TRIzol reagent according to the manufacturer’s instructions. Then a Nanovue Plus™ spectrophotometer (GE Healthcare Life Science) was used to analyze the concentration, quality, and purity of the RNA. Total RNA ( 1μg ) was mixed with oligo deoxythymine (dT) ( 1μL ) at 70°C for 5 min and then combined with a mixture containing Moloney murine leukemia virus (MMLV) reverse transcriptase ( 1μL ), deoxy-ribonucleoside triphosphate (dNTP) ( 1.25μL ), Recombinant RNasin® Ribonuclease Inhibitor (Promega) ( 0.65μL ), and MMLV buffer ( 5μL ) at 42°C for 60 min. The SYBR® Green PCR Kit (TOYOBO) was used for RT-PCR analysis. Real-time fluorescence detection was performed using the StepOnePlus™ sequence detection system (Applied Biosystems). […]
All experiments related to animals were approved by the institutional animal care and use committee of Peking University and followed the guidelines for animal experiments of the university as well as for experimental animals in China. […] Body weight (BW) was measured every week during the dosing period. […] Considering that this study assessed the effects of short-term exposure to TPHP, whereas humans are exposed to TPHP over a lifelong period, the present study used exposure doses that were higher than that of human exposure from house dust. […]

O=P(Oc1ccccc1)(Oc1ccccc1)Oc1ccccc1 [TPHP, triphenyl phosphate]
Adipogenesis [1]: promote adipogenesis | ABCA1 gene expression in peritoneal macrophages relative to control [2]: 0.51±0.07 fold
